From US20220259172A1, “CHEMICAL INHIBITORS OF ID PROTEINS FOR THE TREATMENT OF CANCER AND OTHER DISEASES” (Universität Heidelberg, priority 2019, published 2022)
Entries after “also recorded” stand apart in the source; their conditions may differ.

Columns and labels:
[1] = system: Id1; experiment: Compound screen: BMP4-induced Id1 expression, Western blot; type: cell-based, murine; settings: for Inhibitory effect on Id1 protein expression: B16-F10 and Ret cells, BMP4 10 ng/ml and compound simultaneously, 24 h, rated relative to CBD
Protocol: (§1) To screen compounds with an inhibitory effect on Id1 and Id3 expression, cells were simultaneously stimulated with BMP4 (10 ng/ml, 315-27, Peprotech) and substances at the indicated concentrations for 24 h. DMSO served as a solvent control. Effects on Id1 and Id3 expression levels were analysed by Western blotting.
(§2) Western blot analysis was performed using standard methods. The following antibodies were used for protein detection: Id1 (195-14, CalBioreagents), Id3 (17-3, CalBioreagents), β-actin (AC-15, Sigma Aldrich), Vinculin (VIN-11-5, Sigma Aldrich). Protein bands were detected using HRP conjugated secondary antibodies (P0447, P0448, Agilent Technologies) and enhanced chemiluminescence (32106, Thermo Fisher Scientific).
(§3) B16-F10 and Ret melanoma cells were treated with BMP4 to induce Id1 and Id3 expression, and simultaneously treated with each of the compounds individually for a 24 h period.

[2] = system: Id3; experiment: Compound screen: BMP4-induced Id3 expression, Western blot; type: cell-based, murine; settings: for Inhibitory effect on Id3 protein expression: B16-F10 and Ret cells, BMP4 10 ng/ml and compound simultaneously, 24 h, rated relative to CBD
Protocol: as §1, §2, §3

[3] = system: Id1; experiment: Id1 expression in HUVECs, Western blot; type: cell-based, Human; settings: proliferating HUVECs; 24 hours (FIG. 10A)
Protocol: (§4) Human umbilical vein endothelial cells (HUVECs) and lymphatic endothelial cells (LECs) were cultivated in EBM™-2 Endothelial Cell Growth Basal Medium supplemented with EGM™-2 MV Microvascular Endothelial Cell Growth Medium-2 SingleQuots™ Kit (both Lonza, catalogue numbers CC-3156 and CC4176, respectively), hereafter referred to as endothelial cell growth medium. HUVECs and LECs were cultivated in the presence of the indicated concentrations of X6632, or with DMSO as a solvent control. After 24 hours, cells were harvested. Lysates were western blotted and probed with antibodies against Id1 and Id3. Western blots probed with vinculin antibodies served as loading controls.
as §2
(§5) The effect of X6632 on Id1 and Id3 expression in cultivated proliferating human umbilical vein endothelial cells (HUVECs) was investigated. […] LDN-193189, an antagonist of BMP receptor isotypes ALK2 and ALK3, served as a positive control reference for inhibition of Id1 and Id3 expression.

[4] = system: Id3; experiment: Id3 expression in HUVECs, Western blot; type: cell-based, Human; settings: proliferating HUVECs; 24 hours (FIG. 10A)
Protocol: as §4, §2, §5

[5] = molecular target: CB2 (Homo sapiens, UniProt P34972); settings: cited from earlier work
Chain of CB2 (P34972 whole entry, species assumed): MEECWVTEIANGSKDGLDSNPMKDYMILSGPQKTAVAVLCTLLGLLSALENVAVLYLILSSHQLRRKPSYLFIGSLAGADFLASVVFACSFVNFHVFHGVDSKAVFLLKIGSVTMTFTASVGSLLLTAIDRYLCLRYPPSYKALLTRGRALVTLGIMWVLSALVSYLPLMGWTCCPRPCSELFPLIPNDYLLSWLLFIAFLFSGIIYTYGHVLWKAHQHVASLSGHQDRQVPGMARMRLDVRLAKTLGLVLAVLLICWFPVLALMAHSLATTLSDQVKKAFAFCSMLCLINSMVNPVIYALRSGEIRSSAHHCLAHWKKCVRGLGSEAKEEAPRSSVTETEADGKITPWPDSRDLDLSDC

[6] = system: mammary carcinoma; settings: orthotropic mammary carcinoma model; cited from earlier work
[7] = system: B16-F10 and Ret cells; experiment: 3D Matrigel assay; type: cell-based, murine
Protocol: X8166 inhibits melanoma cell growth in 3D Matrigel. B16-F10 (A) or Ret (B) control or CRISPR/Cas9 Id1/Id3 cells were seeded in 3D Matrigel (10 mg/ml) and grown for six days before analysis. B16-F10 or Ret cells were treated daily with DMSO or X8166 (7.5 μM). The number of colonies at six positions of each well of a 48-well plate were counted in each z-level (5-10 z-levels were imaged per position).
Cells (2×10^3) were mixed with Matrigel to obtain 150 μl of a cell/Matrigel (10 mg/ml, #354262, Corning Inc.) solution, which was seeded into a well of a 48-well plate. The gel was allowed to solidify at 37° C. for 30 min and was subsequently overlaid with 500 μl complete growth medium. After six days of culture, images were captured using a Leica DMI6000 B microscope at six different x/y positions in every well, and a minimum of five horizontal layers (z levels) at each position, in order to get every cell in focus for image analysis. Image analysis was performed using Fiji software as follows: First, images were transformed into 8-bit files (pixel values from 0 (black) to 255 (white)). The scale was set to distance=0, known=0, pixel=1, and unit=pixel global. Outlines of each colony in focus in every image were detected using the integrated semi-automatic magic wand tool. Once outlines were matching the morphology of the colony were obtained, the colony was filled white (pixel value 255) using the fill function. Thresholding of pixel values (threshold=255) allowed black (background) and white (colonies) images of the filled colonies to be obtained. The “Analyze particles” function was applied to measure the area and perimeter of colonies with a minimum pixel size of 1500. An invasive index was calculated as follows: Invasive index=(perimeter)^2/area, resulting in a unitless measure of invasiveness.

[8] = system: Id1; settings: cited from earlier work
[9] = system: glioma; settings: glioma model; cited from earlier work
[10] = system: B16-F10 melanoma cells; experiment: Tumor growth and initiation in vivo, B16-F10; set-up: species or system mice; settings: for Number of animals with tumors: B16-F10 cells, 8 mice per group, assessed over 90 days
Excerpt: (§6) B16-F10 (A) or Ret (B) cells were co-injected with Matrigel into syngeneic mice. […] Numbers indicate the number of animals with a tumor in each group. Bar graphs show the mean tumor volume in each group at the day when the first animal had reached the legal tumor size limit. Kaplan-Meier curves show the percentage of tumor-free animals in percent as a measure for tumor initiation.
(§7) Cells were harvested using trypsin/EDTA and washed in PBS. The indicated numbers of living melanoma cells were subcutaneously injected into the flank of syngeneic mice in 100 μl PBS. For co-injection experiments, the indicated number of living cells was resuspended in 100 μl Matrigel HC (10 mg/ml, #354262, Corning Inc.), and subcutaneously injected into the flank. Tumor volume was calculated using the formula 4/3π (d1/2×d2/2×d3/2), where d1−d3 represents the diameter of the tumor in three dimensions. […] All animal experiments were approved by the local authorities, and performed according to the German legal requirements. Tumor initiating cell (TIC) frequency and p-values were calculated using ELDA software.
(§8) To investigate the anti-tumor properties of the selected Id1/Id3-inhibiting compounds, groups of experimental mice (8 per group) were injected subcutaneously with B16-F10 or Ret melanoma cells. […] Melanoma initiation and growth was assessed over a period of 90 days.

[11] = system: mouse embryonic fibroblasts (MEFs); experiment: Proliferation/cytotoxicity in mouse embryonic fibroblasts, 2D culture; type: cell-based
[12] = Toxicity observed in treated tumor-bearing mice; type: in vivo; settings: daily intraperitoneal injections; for Toxicity in the treated mice: 14 days
Protocol: as §7
In contrast, daily intraperitoneal injections of CBD led to the death of two mice in the experiment with Ret cell-derived tumors (cause of death unknown).

[13] = system: B16-F10 and Ret cells; experiment: Proliferation of melanoma cells in 2D culture; type: cell-based, murine
[14] = system: Ret melanoma cells; experiment: Tumor growth and initiation in vivo, Ret; set-up: species or system mice
Excerpt: as §6, §7, §8

[15] = compound 3.3 μM, BMP4, 24 h (FIG. 9B)

Cc1ccc(CN(C(=O)c2ccccc2)c2nn(Cc3ccc(C)cc3)c3c(C(F)(F)F)cccc23)cc1 [X8766]
Inhibitory effect on Id1 protein expression [1]: strongest inhibitory activities
Inhibitory effect on Id3 protein expression [2]: strongest inhibitory activities

Cc1cc(=O)oc2cc(O)ccc12 [4-methylumbelliferone, reference compound]
Id1 protein expression [3]: did not reduce
Id3 protein expression [4]: did not reduce

O=C(Nc1nn(Cc2ccc(C(F)(F)F)cc2)c2c(C(F)(F)F)cccc12)c1ccccc1 [X8035]
Inhibitory effect on Id1 protein expression [1]: strongest inhibitory activities
Inhibitory effect on Id3 protein expression [2]: strongest inhibitory activities

Cc1ccc(Cn2cc(CC(=O)Nc3ccc(C(F)(F)F)cc3)c3ccccc32)cc1 [X8706]
Inhibitory effect on Id1 protein expression [1]: strongest inhibitory activities
Inhibitory effect on Id3 protein expression [2]: strongest inhibitory activities

C=C(C)[C@@H]1CCC(C)=C[C@H]1c1c(O)cc(CCCCC)cc1O [CBD, Cannabidiol, reference compound]
Affinity for CB2 [5]: low affinity
Levels of Id1 in tumor tissue [6]: reduced levels
Primary tumor growth and lung metastasis [6]: inhibition
3D assays could not be performed with daily application, reason ([7]; daily application in 3D Matrigel): cytotoxicity
Id1 expression at the transcriptional level [8]: inhibits
Inhibition of Id1 expression [1, 15]: does not inhibit
Id1 expression [9]: inhibited
Invasion in vivo [9]: decreased invasion
Survival of tumor-bearing mice [9]: prolonged survival
Number of animals with tumors [10]: seven out of eight
Proliferation / cytotoxicity, non-transformed MEFs [11]: strongly inhibited; also recorded: more toxic
Inhibition of Id3 expression [2, 15]: does not inhibit
Toxicity in the treated mice [12]: toxicity-related injury to their intestinal organs
Death of mice ([12]; experiment with Ret cell-derived tumors, cause of death unknown): two
Proliferation / cytotoxicity, melanoma cells [13]: strongly inhibited; also recorded: more cytotoxic

CCCCCCC(C)(C)c1cc(O)c2cc(Cc3ccccc3O)c(=O)oc2c1 [X106]
Inhibitory effect on Id1 protein expression [1]: strongest inhibitory activities
Inhibitory effect on Id3 protein expression [2]: strongest inhibitory activities

CCCCCCCC(C)(C)c1cc(O)c2cc(Cc3ccccc3O)c(=O)oc2c1 [X81]
Inhibitory effect on Id1 protein expression [1]: strongest inhibitory activities
Inhibitory effect on Id3 protein expression [2]: strongest inhibitory activities

CCCCn1cc(C(=O)Cc2ccccc2)c2ccccc21 [X8166]
Growth of melanoma cells in 3D Matrigel ([7]; Matrigel 10 mg/ml, six days, treated daily, X8166 7.5 μM): significantly impaired; also recorded: inhibits
Inhibitory effect on Id1 protein expression [1]: strongest inhibitory activities
Melanoma growth and initiation ([14]; Ret cells co-injected with Matrigel, syngeneic mice, daily i.p. first 14 days, compared to DMSO): significantly inhibit; also recorded: potent inhibitors
Number of mice that did not develop any tumors ([14]; Ret cells, 8 mice per group, assessed over 90 days): 2 mice
Tumor growth and initiation compared to CBD ([14]; Ret experiment, daily i.p. first 14 days): significantly more
Melanoma growth and initiation ([10]; B16-F10 cells co-injected with Matrigel, syngeneic mice, daily i.p. first 14 days, compared to DMSO): significantly inhibit; also recorded: potent inhibitors
Number of animals with tumors [10]: none
Tumor growth and initiation compared to CBD ([10]; B16-F10 experiment, daily i.p. first 14 days): significantly more
Proliferation / cytotoxicity, non-transformed MEFs [11]: modest inhibitory effect; also recorded: well tolerated; also recorded: superior; also recorded: less cytotoxic
Inhibitory effect on Id3 protein expression [2]: strongest inhibitory activities
Toxicity in the treated mice [12]: no evidence for toxicity was observed; also recorded: well tolerated
Proliferation / cytotoxicity, melanoma cells [13]: modest inhibitory effect; also recorded: less cytotoxic
